DBAASP
Values after ≈ are worked out from the molar mass of the structure shown. Values joined by “and” are separate entries in the source; they are usually repeats but may differ in a detail not shown here. Equal entries are not always repeated.

How the values were obtained:
Assay in all cases: ≥ marks a high value that may be exact or a test limit, other limits are often not marked, values filed in µg/mL are converted to µM
[1] = test system: Escherichia coli DH5alpha
[2] = test system: Klebsiella pneumoniae ATCC 13883
[3] = test system: Pseudomonas aeruginosa ATCC 27853
[4] = test system: Salmonella enterica subsp. enterica serovar Typhimurium ATCC 14028
[5] = test system: Bacillus subtilis
[6] = test system: Candida albicans ATCC 2002
[7] = test system: Escherichia coli ATCC 25922
[8] = test system: Staphylococcus aureus ATCC 2592
[9] = test system: Staphylococcus aureus NCTC 8325
[10] = test system: Acinetobacter baumannii ATCC 19606
[11] = test system: Bacillus subtilis 168
[12] = test system: Bacillus subtilis ATCC 23857
[13] = test system: Klebsiella pneumoniae ATCC 700603
[14] = test system: Staphylococcus aureus ATCC 25923
[15] = test system: Escherichia coli UB1005
[16] = test system: Salmonella enterica subsp. enterica serovar Typhimurium C77-31
[17] = test system: Staphylococcus aureus ATCC 29213
[18] = test system: Staphylococcus epidermidis ATCC 12228
[19] = test system: Candida albicans ATCC 90028

`CC[C@H](C)[C@H](NC(=O)[C@H](Cc1cnc[nH]1)NC(=O)[C@H](C)NC(=O)[C@H](CCSC)NC(=O)[C@H](CC(N)=O)NC(=O)[C@H](CCCCN)NC(=O)[C@H](CCCCN)NC(=O)[C@@H](NC(=O)[C@@H](NC(=O)[C@H](CCCCN)NC(=O)[C@H](C)NC(=O)[C@H](Cc1ccccc1)NC(=O)[C@H](CC(C)C)NC(=O)[C@H](CCCCN)NC(=O)[C@@H]1CCCN1C(=O)[C@H](CC(C)C)NC(=O)[C@H](Cc1ccccc1)NC(=O)[C@@H](N)CS)[C@@H](C)CC)[C@@H](C)O)C(=O)N[C@@H](CCCN=C(N)N)C(=O)O` [CFLPKLFAKITKKNMAHIR] was tested, and the MIC [1] was 10 µM (≈ 22.6 µg/mL), the MIC [2] was 7 µM and 5 µM and the MIC [3] was 10 µM (≈ 22.6 µg/mL). The MIC [4] was 15 µM (≈ 33.9 µg/mL).
Molecule `CC[C@H](C)[C@H](NC(=O)[C@H](C)NC(=O)[C@H](CS)NC(=O)[C@@H](NC(=O)[C@@H](NC(=O)[C@@H](NC(=O)[C@@H]1CCCN1C(=O)[C@@H](NC(=O)[C@@H](NC(=O)[C@@H](NC(=O)[C@H](C)NC(=O)[C@H](Cc1ccccc1)NC(=O)[C@H](CC(C)C)NC(=O)[C@H](CCCN=C(N)N)NC(=O)[C@H](CCCN=C(N)N)NC(=O)[C@H](CC(C)C)NC(=O)CNC(=O)[C@@H]1CCCN1C(=O)[C@@H](NC(=O)[C@@H](N)Cc1ccccc1)[C@@H](C)CC)[C@@H](C)O)C(C)C)C(C)C)[C@@H](C)O)C(C)C)C(C)C)C(=O)N[C@@H](CC(N)=O)C(=O)N[C@@H](CCCCN)C(=O)N[C@@H](CC(C)C)C(=O)N1CCC[C@H]1C(=O)N1CCC[C@H]1C(=O)NCC(=O)O` [FIPGLRRLFATVVPTVVCAINKLPPG] has an MIC [5] of 18 µM (≈ 50 µg/mL), an MIC [6] of 2.27 µM (≈ 6.3 µg/mL) and an MIC [7] of 4.5 µM (≈ 12.5 µg/mL). For the same molecule, the MIC [8] was 4.5 µM (≈ 12.5 µg/mL).
`CC[C@H](C)[C@H](NC(=O)[C@@H](NC(=O)[C@H](CO)NC(=O)[C@@H]1CCCN1C(=O)[C@@H](NC(=O)[C@H](CC(C)C)NC(=O)[C@H](CCCCN)NC(=O)[C@H](Cc1ccccc1)NC(=O)[C@H](CC(C)C)NC(=O)CNC(=O)CNC(=O)[C@H](CC(C)C)NC(=O)[C@@H](N)Cc1ccccc1)C(C)C)C(C)C)C(=O)N[C@H]1CSSC[C@@H](C(=O)O)NC(=O)[C@H](CCCCN)NC(=O)[C@H](CCCCN)NC(=O)[C@H]([C@@H](C)O)NC(=O)[C@H](C(C)C)NC(=O)[C@H](C)NC1=O` [FLGGLFKLVPSVICAVTKKC] gave an MIC [7] of 12.5 µM (≈ 26.5 µg/mL) and an MIC [9] of 12.5 µM (≈ 26.5 µg/mL).
For `CC[C@H](C)[C@H](NC(=O)CNC(=O)[C@H](CO)NC(=O)[C@H](CCCN=C(N)N)NC(=O)[C@@H](N)Cc1ccccc1)C(=O)N[C@@H](CC(C)C)C(=O)N[C@@H](CCCCN)C(=O)N[C@@H](CC(C)C)C(=O)N[C@@H](C)C(=O)N[C@@H](CO)C(=O)N[C@@H](CCCCN)C(=O)N[C@H](C(=O)NCC(=O)N[C@@H](CO)C(=O)N[C@H](C(=O)N[C@@H](CC(C)C)C(=O)N[C@H]1CSSC[C@@H](C(=O)O)NC(=O)[C@H](CC(N)=O)NC(=O)[C@H](CCCCN)NC(=O)[C@H](CC(C)C)NC(=O)[C@H](C(C)C)NC(=O)[C@H](C)NC1=O)C(C)C)[C@@H](C)CC` [FRSGILKLASKIGSVLCAVLKNC], the MIC [5] was 20.7 µM (≈ 50 µg/mL), the MIC [6] was 10.3 µM (≈ 25 µg/mL) and the MIC [7] was 20.7 µM (≈ 50 µg/mL). It also gave an MIC [8] of 10.3 µM (≈ 25 µg/mL).
`CC[C@H](C)[C@H](NC(=O)[C@H](CCCCN)NC(=O)[C@H](CCCCN)NC(=O)[C@@H](NC(=O)[C@@H](NC(=O)[C@H](CCCCN)NC(=O)[C@H](CCCCN)NC(=O)[C@@H](NC(=O)[C@@H](NC(=O)CN)[C@@H](C)CC)[C@@H](C)CC)[C@@H](C)CC)[C@@H](C)CC)C(N)=O` [GIIKKIIKKI] was tested, and the MIC [10] was ≥ 64 µM, the MIC [11] was 30 µM (≈ 34.6 µg/mL) and the MIC [12] was 16 µM (≈ 18.4 µg/mL). The MIC [7] was ≥ 32 µM, the MIC [1] was ≥ 125 µM and the MIC [13] was ≥ 128 µM. For the same molecule, the MIC [3] was ≥ 64 µM and the MIC [14] was ≥ 128 µM.
With `CC[C@H](C)[C@H](NC(=O)CNC(=O)[C@H](CCC(N)=O)NC(=O)[C@H](Cc1ccccc1)NC(=O)[C@H](Cc1ccccc1)NC(=O)[C@H](CCCCN)NC(=O)[C@H](CCCCN)NC(=O)[C@H](CC(C)C)NC(=O)[C@H](C)NC(=O)[C@H](CC(N)=O)NC(=O)[C@H](CC(C)C)NC(=O)CN)C(=O)N[C@@H](Cc1cnc[nH]1)C(=O)N[C@@H](CCC(=O)O)C(=O)N[C@@H](C)C(=O)N[C@H](C(=O)N[C@@H](CCCCN)C(=O)N[C@@H](CC(C)C)C(=O)N[C@H](C(=O)N[C@@H](CC(N)=O)C(=O)N[C@@H](CC(N)=O)C(=O)N[C@@H](Cc1cnc[nH]1)C(=O)N[C@H](C(=O)N[C@@H](CCC(N)=O)C(=O)O)C(C)C)[C@@H](C)CC)[C@@H](C)CC` [GLNALKKFFQGIHEAIKLINNHVQ] the MIC [7] was 20 µM (≈ 54.7 µg/mL) and the MIC [9] was ≥ 160 µM.
With `CC[C@H](C)[C@H](NC(=O)CNC(=O)[C@H](CCC(N)=O)NC(=O)[C@H](Cc1ccccc1)NC(=O)[C@@H](NC(=O)[C@H](CCCCN)NC(=O)[C@H](CCCCN)NC(=O)[C@H](CC(C)C)NC(=O)[C@H](C)NC(=O)[C@H](CC(N)=O)NC(=O)[C@H](CC(C)C)NC(=O)CN)C(C)C)C(=O)N[C@@H](Cc1cnc[nH]1)C(=O)N[C@@H](CCC(=O)O)C(=O)N[C@@H](C)C(=O)N[C@H](C(=O)N[C@@H](CCCCN)C(=O)N[C@@H](CC(C)C)C(=O)N[C@H](C(=O)N[C@@H](CC(N)=O)C(=O)N[C@@H](CC(N)=O)C(=O)N[C@@H](Cc1cnc[nH]1)C(=O)N[C@H](C(=O)N[C@@H](CCCCN)C(=O)O)C(C)C)[C@@H](C)CC)[C@@H](C)CC` [GLNALKKVFQGIHEAIKLINNHVK] the MIC [7] was 20 µM (≈ 53.7 µg/mL) and the MIC [9] was ≥ 80 µM.
In the case of `CC(C)C[C@H](NC(=O)[C@H](CCCN=C(N)N)NC(=O)[C@H](CCCN=C(N)N)NC(=O)[C@H](Cc1ccccc1)NC(=O)[C@H](CCCN=C(N)N)NC(=O)CN)C(=O)N[C@@H](CCCN=C(N)N)C(=O)N[C@@H](CCCCN)C(=O)N[C@@H](CCCCN)C(=O)N[C@H](C(=O)N[C@@H](CCCN=C(N)N)C(=O)N[C@@H](CCCCN)C(N)=O)[C@@H](C)O` [GRFRRLRKKTRK], the MIC [7] was 128 µM (≈ 205 µg/mL), the MIC [15] was ≥ 128 µM and the MIC [16] was ≥ 128 µM. The MIC [14] was > 128 µM, the MIC [17] was > 128 µM and the MIC [18] was > 128 µM.
For `CC[C@H](C)[C@H](NC(=O)CNC(=O)[C@H](CCCN=C(N)N)NC(=O)[C@H](Cc1ccc(O)cc1)NC(=O)[C@@H](NC(=O)[C@@H](NC(=O)[C@H](CCCN=C(N)N)NC(=O)[C@H](Cc1ccccc1)NC(=O)[C@@H](NC(=O)[C@H](Cc1c[nH]c2ccccc12)NC(=O)[C@H](Cc1c[nH]c2ccccc12)NC(=O)[C@@H](N)CCCCN)C(C)C)C(C)C)C(C)C)C(=O)N[C@H](C(=O)N[C@@H](Cc1ccc(O)cc1)C(=O)N[C@@H](CCCN=C(N)N)C(=O)N[C@@H](CCCN=C(N)N)C(=O)N[C@H](C(=O)N[C@@H](CCCN=C(N)N)C(=O)N[C@@H](Cc1c[nH]c2ccccc12)C(=O)N[C@@H](CCCCN)C(=O)O)C(C)C)C(C)C` [KWWVFRVVYRGIVYRRVRWK], the MIC [1] was 12.5 µM (≈ 34.4 µg/mL).
For `CC[C@H](C)[C@H](NC(=O)[C@@H](NC(=O)[C@@H]1CCCN1C(=O)[C@H](CC(C)C)NC(=O)[C@@H](NC(=O)[C@@H](N)CO)[C@@H](C)CC)[C@@H](C)O)C(=O)N[C@H](C(=O)N[C@@H](CO)C(=O)N[C@@H](Cc1ccccc1)C(=O)N[C@@H](CC(C)C)C(=O)N[C@@H](CO)C(=O)N[C@@H](CCCCN)C(=O)N[C@@H](Cc1ccccc1)C(=O)N[C@@H](CC(C)C)C(N)=O)C(C)C` [SILPTIVSFLSKFL], the MIC [9] was 24 µM (≈ 37.5 µg/mL).
In the case of `CC[C@H](C)[C@H](NC(=O)[C@H](CCSC)NC(=O)[C@@H](N)CO)C(=O)N[C@@H](CO)C(=O)N[C@H](C(=O)N[C@@H](CC(C)C)C(=O)N[C@@H](CCCCN)C(=O)N[C@@H](CC(N)=O)C(=O)N[C@@H](CC(C)C)C(=O)NCC(=O)N[C@@H](CCCCN)C(=O)N[C@H](C(=O)NCC(=O)N[C@@H](CC(C)C)C(=O)NCC(=O)N[C@@H](Cc1ccccc1)C(=O)N[C@H](C(=O)N[C@@H](C)C(=O)N[C@H]1CSSC[C@@H](C(=O)O)NC(=O)[C@H](CCC(N)=O)NC(=O)[C@H](CCCCN)NC(=O)[C@H](CC(N)=O)NC(=O)[C@H](C(C)C)NC(=O)[C@H](CCCCN)NC1=O)C(C)C)C(C)C)C(C)C` [SMISVLKNLGKVGLGFVACKVNKQC], the MIC [19] was ≥ 110 µM, the MIC [7] was 3.5 µM (≈ 9.22 µg/mL) and the MIC [9] was ≥ 60 µM.
Work on `CC(C)[C@H](N)C(=O)N[C@@H](CCCCN)C(=O)N[C@@H](CCCN=C(N)N)C(=O)N[C@@H](Cc1c[nH]c2ccccc12)C(=O)N[C@@H](CCCCN)C(=O)N[C@@H](CCCCN)C(=O)N[C@@H](Cc1ccccc1)C(=O)N[C@@H](Cc1c[nH]c2ccccc12)C(=O)N[C@@H](CCCN=C(N)N)C(=O)N[C@@H](CCCCN)C(=O)N[C@@H](Cc1c[nH]c2ccccc12)C(=O)N[C@@H](CCCCN)C(=O)N[C@@H](CCCCN)C(=O)N[C@@H](Cc1c[nH]c2ccccc12)C(=O)N[C@@H](Cc1c[nH]c2ccccc12)C(N)=O` [VKRWKKFWRKWKKWW] yielded an MIC [5] of 2.06 µM (≈ 4.69 µg/mL), an MIC [6] of 1.03 µM (≈ 2.34 µg/mL) and an MIC [7] of 8.24 µM (≈ 18.7 µg/mL). The MIC [8] was 2.06 µM (≈ 4.69 µg/mL).
